For 4 molecules, AC50, EC50 and IC50 results are on record in ChEMBL document CHEMBL1201862, “PubChem BioAssay data set” (2004).

The test system of one assay is INS1. The assay can be described thus: beta cell apoptosis inhibitors, cytokine rescue, dose response, luminescence, retest (AID 449756).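 Also: cell death triggered by IL-1 beta plus TNF-alpha plus IFN-gamma mixture; protective hits raise ATP signal compared with cytokine alone wells.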 The format is functional, cell-based. Particulars: Rattus norvegicus.
The test system of assay [1] is Streptococcus sp. 'group A'. Briefly: growth inhibition of control SK(-) GAS strain, dose response, counter-screen for streptokinase expression inhibitor project, luminescence, kanamycin, BacTiterGlo, confirmation (AID 1900). The format is functional, organism-based. A general note: The purpose of a counterscreen is to sort out artefacts and off-target activity.
Assay [2] concerns the target T1, Replicative DNA helicase DnaB (Mycobacterium tuberculosis, UniProt P9WMR3).
T1 sequence (P9WMR3 whole entry): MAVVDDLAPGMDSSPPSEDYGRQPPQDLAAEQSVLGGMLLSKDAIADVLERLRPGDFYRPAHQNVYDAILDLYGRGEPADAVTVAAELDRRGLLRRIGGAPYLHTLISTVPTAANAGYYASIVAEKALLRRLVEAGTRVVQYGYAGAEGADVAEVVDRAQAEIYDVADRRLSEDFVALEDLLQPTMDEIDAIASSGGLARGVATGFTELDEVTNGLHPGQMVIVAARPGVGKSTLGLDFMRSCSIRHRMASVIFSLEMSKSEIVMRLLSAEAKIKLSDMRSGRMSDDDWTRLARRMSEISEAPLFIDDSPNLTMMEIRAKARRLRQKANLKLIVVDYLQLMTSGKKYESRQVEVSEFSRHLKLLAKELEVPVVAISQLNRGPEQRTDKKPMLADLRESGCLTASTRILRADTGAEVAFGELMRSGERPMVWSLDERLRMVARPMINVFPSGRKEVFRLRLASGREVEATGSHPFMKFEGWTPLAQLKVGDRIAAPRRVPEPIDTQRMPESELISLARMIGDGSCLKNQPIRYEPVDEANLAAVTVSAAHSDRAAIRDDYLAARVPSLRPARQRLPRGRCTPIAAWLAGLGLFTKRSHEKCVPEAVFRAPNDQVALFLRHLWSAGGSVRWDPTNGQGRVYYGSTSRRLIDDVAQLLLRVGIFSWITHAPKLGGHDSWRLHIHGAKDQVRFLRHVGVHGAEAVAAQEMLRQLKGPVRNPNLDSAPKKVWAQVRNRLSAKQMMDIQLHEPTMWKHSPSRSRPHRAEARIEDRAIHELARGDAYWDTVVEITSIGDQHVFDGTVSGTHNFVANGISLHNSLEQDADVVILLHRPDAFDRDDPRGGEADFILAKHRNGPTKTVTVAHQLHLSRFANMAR
The assay can be described thus: DnaB intein splicing inhibitors, dose response, biochemical, cell-free fluorescence (AID 449749). The format is functional.

The target of another assay is T2, Protein RecA (Mycobacterium tuberculosis, UniProt P9WHJ3).
T2 sequence (P9WHJ3 whole entry): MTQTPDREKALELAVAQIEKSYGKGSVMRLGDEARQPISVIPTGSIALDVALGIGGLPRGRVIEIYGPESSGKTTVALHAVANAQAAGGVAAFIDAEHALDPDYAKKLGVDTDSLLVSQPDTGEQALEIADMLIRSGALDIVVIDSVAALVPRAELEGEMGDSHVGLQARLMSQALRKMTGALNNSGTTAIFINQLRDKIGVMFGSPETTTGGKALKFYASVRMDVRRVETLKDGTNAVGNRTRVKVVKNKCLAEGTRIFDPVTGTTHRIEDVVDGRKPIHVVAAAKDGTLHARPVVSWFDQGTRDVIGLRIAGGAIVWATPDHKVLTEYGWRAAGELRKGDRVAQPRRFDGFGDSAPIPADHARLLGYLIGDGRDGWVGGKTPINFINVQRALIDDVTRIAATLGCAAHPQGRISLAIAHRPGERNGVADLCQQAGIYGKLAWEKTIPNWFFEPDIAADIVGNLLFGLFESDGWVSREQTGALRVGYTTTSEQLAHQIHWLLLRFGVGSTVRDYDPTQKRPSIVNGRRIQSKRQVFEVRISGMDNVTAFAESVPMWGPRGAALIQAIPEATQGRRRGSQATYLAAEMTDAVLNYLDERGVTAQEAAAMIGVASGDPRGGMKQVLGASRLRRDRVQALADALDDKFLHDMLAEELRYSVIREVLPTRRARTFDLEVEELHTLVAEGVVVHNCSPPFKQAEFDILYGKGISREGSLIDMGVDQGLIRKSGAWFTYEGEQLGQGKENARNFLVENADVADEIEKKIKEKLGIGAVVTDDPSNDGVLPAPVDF
Briefly: Fluorescence Cell-Free Homogeneous Dose Retest to Identify Inhibitors of RecA-Intein Splicing Activity. [Related pubchem assays (depositor defined):AID2097, AID2223, AID489010, AID492950]. It is filed as functional.

The target in assay [3] is NACHT, LRR and PYD domains-containing protein 3 (Homo sapiens, UniProt Q96P20). Briefly: NALP3 inhibitors in yeast, dose response, luminescent (AID 488799). The format is functional.
For the next assay, the target named is T3, Streptokinase A (Streptococcus pyogenes serotype M1, UniProt P10520).
T3 sequence (P10520 whole entry): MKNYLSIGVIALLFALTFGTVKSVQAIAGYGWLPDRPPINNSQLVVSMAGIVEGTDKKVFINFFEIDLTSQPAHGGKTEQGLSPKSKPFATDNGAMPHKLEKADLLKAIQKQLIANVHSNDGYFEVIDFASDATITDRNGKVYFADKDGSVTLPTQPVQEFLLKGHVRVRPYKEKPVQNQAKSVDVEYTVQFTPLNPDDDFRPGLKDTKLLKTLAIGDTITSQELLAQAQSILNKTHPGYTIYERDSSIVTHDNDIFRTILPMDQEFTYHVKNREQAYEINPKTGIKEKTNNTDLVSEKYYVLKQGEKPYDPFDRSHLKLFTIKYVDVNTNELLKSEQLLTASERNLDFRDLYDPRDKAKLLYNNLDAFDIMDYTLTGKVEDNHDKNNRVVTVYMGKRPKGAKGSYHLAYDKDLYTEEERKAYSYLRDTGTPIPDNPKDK
The assay can be described thus: S. pyogenes streptokinase expression inhibitors, potency, dose response, plasminogen activation absorbance, OD405 (AID 1914).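 Also: secreted streptokinase activity via plasminogen activation per viability signal from cell pellet.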 The format is functional, Streptococcus pyogenes M1 GAS.

The subject of the next assay is Streptococcus. The assay can be described thus: Group A Streptococcus viability loss, dose response, counter-screen for streptokinase expression inhibitor project, luminescence, BacTiterGlo (AID 1915).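 Also: potency for reduction of bacterial viability or growth.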 The format is functional, organism-based.
Assay [4] can be described thus: Counterscreen for AddAB inhibitors: absorbance-based bacterial cell-based high throughput dose response assay for inhibitors of bacterial viability. [Related pubchem assays (depositor defined):AID435030, AID449728, AID449731, AID488942, AID488955, AID488956]. It is filed as functional.

Active and inactive are the calls of the source.

NACHT, LRR and PYD domains-containing protein 3, sequence (Q96P20 whole entry, the tested form may be a part): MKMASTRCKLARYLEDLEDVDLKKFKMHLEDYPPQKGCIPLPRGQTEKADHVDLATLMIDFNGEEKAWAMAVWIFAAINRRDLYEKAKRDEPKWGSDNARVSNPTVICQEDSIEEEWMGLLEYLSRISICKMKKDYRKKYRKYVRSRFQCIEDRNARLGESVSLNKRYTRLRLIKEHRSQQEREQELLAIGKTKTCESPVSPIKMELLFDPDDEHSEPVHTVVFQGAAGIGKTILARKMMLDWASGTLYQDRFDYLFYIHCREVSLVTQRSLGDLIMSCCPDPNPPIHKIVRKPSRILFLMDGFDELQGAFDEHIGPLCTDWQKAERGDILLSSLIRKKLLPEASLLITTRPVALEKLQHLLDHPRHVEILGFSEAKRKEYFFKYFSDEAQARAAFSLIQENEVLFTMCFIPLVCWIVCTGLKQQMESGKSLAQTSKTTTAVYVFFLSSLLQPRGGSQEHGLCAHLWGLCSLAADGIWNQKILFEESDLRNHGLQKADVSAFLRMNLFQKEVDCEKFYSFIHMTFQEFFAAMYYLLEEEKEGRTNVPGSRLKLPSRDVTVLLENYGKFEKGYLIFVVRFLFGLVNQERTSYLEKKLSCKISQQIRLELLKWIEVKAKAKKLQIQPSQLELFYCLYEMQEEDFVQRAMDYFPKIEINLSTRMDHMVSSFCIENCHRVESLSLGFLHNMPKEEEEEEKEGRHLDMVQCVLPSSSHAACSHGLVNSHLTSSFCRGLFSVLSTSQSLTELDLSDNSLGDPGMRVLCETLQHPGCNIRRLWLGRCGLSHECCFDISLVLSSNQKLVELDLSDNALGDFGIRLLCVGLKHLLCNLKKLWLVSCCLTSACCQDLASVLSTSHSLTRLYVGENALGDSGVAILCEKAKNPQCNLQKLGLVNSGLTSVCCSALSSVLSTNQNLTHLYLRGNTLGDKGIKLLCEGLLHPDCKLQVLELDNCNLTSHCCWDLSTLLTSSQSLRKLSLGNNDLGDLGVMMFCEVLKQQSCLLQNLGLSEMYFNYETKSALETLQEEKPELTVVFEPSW

The AC50 is the midpoint of the concentration-response curve, whichever way the signal moves. As a reminder, the EC50 is the concentration at which the effect is half-maximal. By IC50 is commonly meant the concentration needed to halve the response being measured. Take `COc1ccc(CNC(=O)c2c(C)oc3c2C(=O)c2ccccc2C3=O)cc1`: the AC50 with INS1 was 2.8 µM (active); in assay [2], 13.3 µM (active). Further, the EC50 was 0.737 µM (active) in assay [1], 5.29 µM (active) on Protein RecA, > 150 µM (not active) on Streptokinase A and 6.35 µM (active) with Streptococcus. Besides, in assay [3], the IC50 was 9.7 µM (active).
As for `CC(C)c1ccc(S(=O)(=O)/N=C2\C=C(NS(=O)(=O)c3ccccc3)C(=O)c3ccccc32)cc1`, the AC50 in assay [2] is 3.92 µM (active). For the same molecule, on Protein RecA, the EC50 is 3.69 µM (active).
With `O=[N+]([O-])c1ccc(/C=N/n2cnc3ccccc32)s1`, the AC50 with INS1 is 2.6 µM (active). Further, the IC50 in assay [4] is 91.4 µM (inactive).
Consider `CCSc1nsc(NC(=O)Nc2cccc(F)c2)n1`, for which the half-maximal effective concentration (EC50) was 9.91 µM (active) in assay [1], 40.5 µM (active) on Streptokinase A and 20.7 µM (active) in the assay with Streptococcus. The IC50 was 1.97 µM (active) in assay [3] and > 119 µM (inactive) in assay [4].
